In patent publication US11465997B2, “Synthesis of disorazoles and analogs thereof as potent anticancer agents” (WILLIAM MARSH RICE UNIVERSITY, priority 2017, dated 2022):
Where two headings read alike, the source gives them in different places. Non-standard residues stand in square brackets, D forms with d. Residues, ends and D or L forms follow the SMILES beside them. *: point of attachment. Dolaproine = CO[C@@H]([C@@H]1CCCN1)[C@@H](C)C(=O)O; Dil = CC[C@H](C)[C@H](NC)[C@@H](CC(=O)O)OC; X1 = C[C@@H](N*)[C@@H](O)c1ccccc1; NMeV = CN[C@H](C(=O)O)C(C)C

Assays:
[1] = system: MES SA uterine sarcoma cell line; assay: 72 h killing (cytotoxicity) assay, MES SA; format: cell-based, human; details: MES SA cells, read-out: Cytotoxic activity IC50
[2] = system: MES SA DX (MES SA cell line with marked multidrug resistance); assay: 72 h killing (cytotoxicity) assay, MES SA DX; format: cell-based, human; details: MES DX (MES SA DX) cells, multidrug resistant, read-out: Cytotoxic activity IC50
[3] = solubility of the product in solvents; format: physicochemical; details: e.g., MeOH, DMSO, DCM, CHCl3, MeCN
Method: To a stirred solution of compound 108 (9.0 mg, 9.0 μmol, 1.0 equiv) in DMF (300 μL) and H2O (2.3 μl, 130 μmol, 14 equiv) was added TASF (12 mg, 45 μmol, 5.0 equiv) and the reaction mixture was heated at 40° C. and stirred for 48 h. The resulting mixture was filtered through a small silica pad (10 cm, SiO2, hexanes:EtOAc 1:1→0:1). The resulting fractions containing the desired products were combined, concentrated and purified by flash column chromatography (SiO2, hexanes:EtOAc 1:1→1:4→0:1) to yield bis-(cp-thiazolyl)-disorazole B1 (7, 3.0 mg, 4.2 μmol, 46% yield) as a white foam. […] 86: Rf=0.15 (hexanes:EtOAc, 2:3); IR (film): vmax=3439, 2922, 2852, 1714, 1629, 1212, 1104, 964 cm^−1; ^1H NMR (600 MHz, DMSO-d6 with DCM) δ 8.37 (s, 2H), 6.45-6.37 (m, 2H), 6.21 (d, J=11.9 Hz, 2H), 6.15 (t, J=11.8 Hz, 2H), 5.66 (dd, J=14.1, 11.0 Hz, 2H), 5.60-5.49 (m, 4H), 5.39-5.31 (m, 2H), 5.23-5.11 (m, 4H), 4.64 (d, J=4.6 Hz, 2H), 3.73 (t, J=5.3 Hz, 2H), 2.70 (q, J=12.0 Hz, 2H), 2.29-2.22 (m, 2H), 2.22-2.13 (m, 2H), 1.82-1.73 (m, 2H), 1.64 (d, J=4.9 Hz, 6H), 0.96 (s, 6H), 0.88 (s, 6H), 0.60 (dd, J=10.4, 4.9 Hz, 4H) ppm; ^13C NMR (151 MHz, DMSO-d6 with DCM) δ 163.45, 159.37, 145.61, 142.90, 133.36, 131.70, 131.53, 127.55, 126.37, 125.78, 123.99, 118.18, 76.27, 75.30, 41.33, 27.65, 23.24, 19.05, 19.03, 18.95, 17.63, 16.64. ppm; HR-MS (ESI-TOF): calcd for C44H54O6N2S2Na^+ [M+Na]^+: 793.3316. […]

lung cancer cell lines = details: Jansen et al., 1994 and Elnakady et al., 2004, read-out: IC50 against lung cancer cell line; cited from earlier work
[4] = system: ovarian cancer cell lines; details: Jansen et al., 1994 and Elnakady et al., 2004, read-out: IC50 against ovarian cancer cell line; cited from earlier work
[5] = system: prostate cancer cell lines; details: Jansen et al., 1994 and Elnakady et al., 2004, read-out: IC50 against prostate cancer cell line; cited from earlier work
[6] = 72 h killing (cytotoxicity) assay, HEK 293T; format: cell-based; details: human; 293T (HEK 293T) cells; read-out: Cytotoxic activity IC50

Q: Which IC50 [1] does the source give for `CC[C@H](C)[C@@H]([C@@H](CC(=O)N1CCC[C@H]1[C@H](OC)[C@@H](C)C(=O)N[C@H](C)[C@@H](O)c1ccccc1)OC)N(C)C(=O)[C@@H](NC(=O)[C@@H](NC)C(C)C)C(C)C` [MMAE, monomethyl auristatin E] (H-[NMeV]V[Dil][Dolaproine]-X1) here?
A: 0.51 nM

Q: What about the IC50 [2] of the same compound?
A: 106 nM

Q: Which “solubility in pure solvents” value [3] does the source give for `C/C=C/[C@H](O)C(C)(C)[C@@H]1C/C=C\[C@H]2C[C@H]2/C=C/C=C\c2nc(cs2)C(=O)O[C@H](C(C)(C)[C@@H](O)/C=C/C)C/C=C\[C@H]2C[C@H]2/C=C/C=C\c2nc(cs2)C(=O)O1` [compound 86, (2Z,4E,6S,8R,9Z,12S,19Z,21E,23S,25R,26Z,29S)-12,29-Bis[(3S,4E)-3-hydroxy-2-methylhex-4-en-2-yl]-13,30-dioxa-17,34-dithia-35,36-diazapentacyclo[30.2.1.1^15,18.0^6,8.0^23,25]hexatriaconta-1 (35),2,4,9,15,18 (36),19,21,26,32-decaene-14,31-dione] here?
A: insoluble in most pure solvents

Q: What does the source list for `C/C=C/[C@H](O)C(C)(C)[C@@H]1C\C=C/C=C\C=C\[C@H](OC)Cc2nc(co2)C(=O)O[C@H](C(C)(C)[C@@H](O)/C=C/C)C/C=C\[C@H]2O[C@H]2/C=C/C=C\c2nc(co2)C(=O)O1` [Disorazole A1, (2Z,4E,6S,8R,9Z,12S,20R,21E,23Z,25Z,28S)-12,28-Bis[(3S,4E)-3-hydroxy-2-methylhex-4-en-2-yl]-20-methoxy-7,13,17,29,33-pentaoxa-34,35-diazatetracyclo[29.2.1.1^15,18.0^6,8]pentatriaconta-1 (34),2,4,9,15,18 (35),21,23,25,31-decaene-14,30-dione]?
A: IC50 (lung cancer cell lines): 0.0023 nM; IC50 [4]: 0.0049 nM; IC50 [5]: 0.0071 nM

Q: Which IC50 ([1]; Homo sapiens) does the source give for `C/C=C/[C@H](O)C(C)(C)[C@@H]1C\C=C/C=C\C=C\[C@H](OC)Cc2nc(co2)C(=O)O[C@H](C(C)(C)[C@@H](O)/C=C/C)C/C=C\[C@H]2C[C@H]2/C=C/C=C\c2nc(co2)C(=O)O1` [compound 5, (2Z,4E,6S,8R,9Z,12S,20R,21E,23Z,25Z,28S)-12,28-Bis[(3S,4E)-3-hydroxy-2-methylhex-4-en-2-yl]-20-methoxy-13,17,29,33-tetraoxa-34,35-diazatetracyclo[29.2.1.1^15,18.0^6,8]pentatriaconta-1 (34),2,4,9,15,18 (35),21,23,25,31-decaene-14,30-dione] here?
A: 0.11 nM

Q: What about the IC50 ([2]; Homo sapiens) of the same compound?
A: 0.47 nM

Q: What about the IC50 at 72 h [6] of the same compound?
A: 0.06 nM
